# Reference: patent US9801922B2, “Compositions and methods of treating cancer” (UNIVERSITY OF IOWA RESEARCH FOUNDATION, priority 2011, dated 2017)
# Where two headings read alike, the source gives them in different places.
# How the values were obtained:
# [1] = system: Hec50co human endometrial cancer cells; settings: 2 uM, 24 hrs
# Protocol: Hec50co human endometrial cancer cells were treated with 0.5 μM, 1.0 and 2.0 μM azido-decylTPP and bis-TPP and incubated for 24 hrs. DMSO was added to control dishes to a final concentration of 0.1%. Following a 24 hr. incubation period, cells were plated at densities of 200, 400, 600, 800, 2,000, 5,000, and 10,000 cells per dish and incubated for 2 weeks. After incubation, cells were stained with Coomassie blue and counted under a light microscope. Survival fraction was calculated by dividing the number of colonies counted following treatment by the product of the number of cells plated and plating efficiency. Error bars represent uncertainties of N=2 experiments.
# MB231 cells = settings: 24 hrs
# Protocol: MB231 cells were treated with 0.5 μM, 1.0 μM, and 2.0 μM azido-decylTPP and bis-TPP and incubated for 24 hrs. DMSO was added to control dishes to a final concentration of 0.1%. Following a 24 hr. incubation period, cells were plated at densities of 200, 400, 600, 800, and 2,000 cells per dish and incubated for 2 weeks. After incubation, cells were stained with Coomassie blue and counted under a light microscope. Survival fraction was calculated by dividing the number of colonies counted following treatment by the product of the number of cells plated and plating efficiency.
# A375 melanoma cells = assay: MTT survival fraction analysis, A375; format: cell-based
Molecule,survival fraction [1],survival fraction (MB231 cells; 0.5 uM),survival fraction (MB231 cells; 2 uM),"cytotoxicity in the absence of BSO, in words (A375 melanoma cells)","survival fraction (A375 melanoma cells; in the presence of BSO, 2 μM)","cytotoxicity in the presence of BSO, in words (A375 melanoma cells; up to 2 μM)"
"[N-]=[N+]=NCCCCCCCCCC[P+](c1ccccc1)(c1ccccc1)c1ccccc1 [azido-DTPP, (10-azidodecyl)triphenylphosphonium]",24%,55%,10%,,,
CCCCC[P+](c1ccccc1)(c1ccccc1)c1ccccc1 [pentyl-TPP],,,,no effect,70%,little cytotoxicity
"decane-1,10-diylbis(triphenylphosphonium) [bis-DTPP]",66%,90%,82%,,,
